Source: patent publication US7122624B2, “Parathyroid hormone receptor ligands” (The United States of America as represented by the …, priority 1999, dated 2006)
No end group written: not given here.

Key:
[1] = target: T1, human PTH1 receptor (Homo sapiens, UniProt Q03431); experiment: Intracellular calcium concentration in Fluo-4-loaded HEK293 cells expressing the human PTH1 receptor; assay type: cell-based; parameters: expressed in transfected cells
T1 sequence (Q03431 27-593): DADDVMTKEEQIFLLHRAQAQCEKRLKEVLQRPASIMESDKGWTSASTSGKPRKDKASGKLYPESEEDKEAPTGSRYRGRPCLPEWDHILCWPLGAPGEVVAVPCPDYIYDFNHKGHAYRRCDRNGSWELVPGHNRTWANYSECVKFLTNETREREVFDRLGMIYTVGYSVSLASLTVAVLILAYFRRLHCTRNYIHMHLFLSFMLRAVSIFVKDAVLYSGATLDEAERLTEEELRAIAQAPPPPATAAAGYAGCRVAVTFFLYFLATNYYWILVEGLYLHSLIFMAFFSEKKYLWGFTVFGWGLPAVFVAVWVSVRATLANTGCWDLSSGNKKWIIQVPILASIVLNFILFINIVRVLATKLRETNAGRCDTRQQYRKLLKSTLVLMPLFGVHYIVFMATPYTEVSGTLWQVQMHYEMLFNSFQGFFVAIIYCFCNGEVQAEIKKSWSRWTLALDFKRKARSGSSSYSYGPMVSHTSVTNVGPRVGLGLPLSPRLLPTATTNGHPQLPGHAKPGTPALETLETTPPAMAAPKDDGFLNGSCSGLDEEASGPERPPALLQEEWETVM
Experimental: HEK293 cells stably expressing the PTH1 receptor were seeded in wells of a 96-well plate at 100,000 cells per well. The following day, medium was removed and the cells washed once with 0.1 ml Dulbecco's phosphate buffered saline containing 1 mM Ca^2+ and 1 mM Mg^2+ (DPBS). Cells were then loaded with 5 μM Fluo-4 acetoxymethyl ester, with 0.1% (w/v) Pluronic F-127 and 2.5 mM probenecid in DPBS for 1 hour at 37° C. Following two washes with DPBS supplemented with 0.1% BSA, cells were incubated in 0.1 ml of the same buffer for 30 min at 37° C. This buffer was then removed and 50 μl pre-warmed DPBS with BSA added. Baseline fluorescence was then measured for 80 sec at 37° C. in a Cytofluor 4,000 multiwell plate fluorimeter (PerSpective Biosystems, Framington, Mass.) (excitation wavelength […], emission wavelength […]). Test agents were then added and fluorescence monitored as before. Fluorescence was measured in duplicate wells of cells for each experimental condition. Cytosolic free calcium concentration ([Ca^2+]i) was calculated using the equation: [Ca^2+]i=KD(F−Fmin)/(Fmax−F) where KD is the ion dissociation constant (345 nM) for the indicator and F the fluorescence signal in arbitrary units. Fmax (maximum fluorescence at Ca^2+-saturation of the indicator) was determined by addition of 130 μM ionomycin and Fmin (background fluorescence) measured after addition of 20 mM EGTA.

[2] = target: T2, PTH2 receptor (Homo sapiens, UniProt P49190); experiment: Radioligand displacement binding to HEK293 cell membranes expressing the human PTH2 receptor
Experimental: (§1) In these assays the binding of a range of concentrations of an unlabeled ligand was measured by displacement of radioligand binding. Three methods were employed. An assay employing centrifugation to separate bound and free radioligand was used to accurately measure ligand binding parameters. A higher-throughput method employing rapid filtration was used to generate comparative ligand binding data. […] In these assays a very low concentration of radioligand was used so that the IC50 closely approximates the ligand affinity.
(§2) In the centrifugation assay cell membranes (45–50 μg), radioligand (100,000–300,000 cpm) and unlabeled ligand were incubated in a final volume of 1 ml assay buffer (20 mM HEPES, 100 mM NaCl, 1 mM EDTA, 3 mM MgSO4 pH 7.5, supplemented with 0.3% non-fat dried milk powder, 100 μM AEBSF and 1 μg/ml bacitracin) for two hours at 21° C. Membranes were collected at 18,000×g, the surface of the pellet gently washed and the radioactivity counted as described in Examples. […] Less than 20% of the total radioligand added was bound within the membrane pellet. […] (Greater than 50% of the total radioligand was bound if all the membrane in the incubation was from transfected cells).
(§3) For inhibition of radioligand binding, y is the cpm bound at a given unlabeled ligand concentration, min is non-specific binding (measured in the presence of a high concentration of the unlabeled version of the radiolabeled ligand) and max is total binding (measured in the absence of unlabeled ligand).
(§4) Binding was measured in the presence of 10 μM GTPγS to minimize complications arising from receptor-G-protein coupling, such as pseudo-irreversible binding of the agonist radioligand.
A similar assay design was used for the PTH1 and PTH2 receptor, in which radiolabeled agonist binding was displaced by the unlabeled ligands in the presence of 10 μM GTPγS. […] Membranes were collected at 18,000×g, the surface of the pellet gently washed and the radioactivity counted as described in Examples. […]

[3] = target: T1, human PTH1 receptor; experiment: cAMP accumulation in COS-7 cells transiently expressing the human PTH1 receptor; conditions: for Kb: pKB as concentration
Experimental: (§5) COS-7 cells were grown as previously described in Clark et al. For cAMP accumulation assays COS-7 cells were transfected as previously described in Clark et al. except that transfections were performed in 10 cm tissue culture dishes using 10 μg of plasmid DNA. The cells were transferred following trypsinization to 96-well plates at a density of 50,000 cells/well the following day. Cells were used for cAMP accumulation assays three days after transfection.
(§6) Ligand-stimulated accumulation of cAMP was measured as described in Examples, using a radioimmunoassay to quantify cAMP (Clark et al., supra).
Slightly different procedures were used depending on the experimental paradigm. […] This buffer was removed and replaced with 40 μl fresh buffer. Test agents were added in a volume of 10 μl and the cells incubated for an additional 40 min at 37° C. The assay was then terminated by the addition of 50 μl 0.1 N HCl, 0.1 mM CaCl2. […] After a further 40 minutes at 37° C. the assay was terminated as described above. […] The buffer was removed and the following solutions added sequentially: 30 μl buffer containing plasma, 10 μl antagonist in buffer and 10 μl rPTH(1–34) in buffer. The cells were incubated at 37° C. for 40 minutes prior to assay termination. Human plasma was prepared by addition of EDTA to whole blood at a final concentration of 10 mM followed by centrifugation at 1,000×g for 10 minutes. The plasma supernatant was collected and stored in aliquots at −80° C. before use. cAMP was quantified using a RIA as previously described (Clark et al., supra).
For cAMP accumulation data y is the amount of cAMP produced at a given peptide concentration, min is the cAMP level in the absence of ligand, max is the maximum level produced and K is the log EC50.
The pA2 was subsequently converted to a pKB value by fixing n at unity in the linear regression analysis.

[4] = target: T1, human PTH1 receptor; experiment: cAMP accumulation in HEK293 cells stably expressing the human PTH1 receptor (293PTH1); assay type: cell-based; parameters: expressed in transfected cells; conditions: 293PTH1 cells, cAMP
[5] = target: T2, PTH2 receptor; experiment: cAMP accumulation in HEK293 cells stably expressing the human PTH2 receptor (293PTH2); assay type: cell-based; parameters: expressed in transfected cells; conditions: 293PTH2 cells
Experimental: as §5, §6
For cAMP accumulation data y is the amount of cAMP produced at a given peptide concentration, min is the cAMP level in the absence of ligand and max is the maximum level produced. […] Statistical comparison of multiple means was performed initially by single-factor analysis of variance followed by post-hoc analysis with the Newman-Keuls test. Statistical comparison of two means was performed using a two-tailed Student's t-test.

[6] = target: T3, C-terminal hemaglutinin-tagged human PTH1 receptor (Homo sapiens, UniProt Q03431); experiment: cAMP accumulation in COS-7 cells expressing a C-terminal hemaglutinin-tagged human PTH1 receptor; assay type: cell-based
T3 sequence (Q03431 27-593): T1 sequence (Q03431 27-593)

[7] = target: T1, human PTH1 receptor; experiment: Radioligand displacement binding to HEK293 cell membranes expressing the human PTH1 receptor
Experimental: as §1, §2, §3, §4
A similar assay design was used for the PTH1 and PTH2 receptor, in which radiolabeled agonist binding was displaced by the unlabeled ligands in the presence of 10 μM GTPγS. Briefly, cell membranes (45 μg), radioligand (50,000 cpm) and unlabeled ligand were incubated in a final volume of 1 ml assay buffer (20 mM HEPES, 100 mM NaCl, 1 mM EDTA, 3 mM MgSO4 pH 7.5, supplemented with 0.3% non-fat dried milk powder, 100 μM (4-(2-aminoethyl))-benzenesulfonylflouride (AEBSF), 1 μg/ml bacitracin and 10 μM GTPγS) for two hours at 21° C. Membranes were collected at 18,000×g, the surface of the pellet gently washed and the radioactivity counted as described in Examples. […] To prevent greater than 20% of the total radioligand added from binding to the membranes, 15–20 μg of membranes from transfected cells were used, made up to 45 μg with membranes from non-transfected cells.

[8] = target: T4, rat PTH1 receptor (Rattus norvegicus, UniProt P25961); experiment: cAMP accumulation in COS-7 cells transiently expressing the rat PTH1 receptor; assay type: cell-based; conditions: 3.2 μM TIP(7–39), agonist rPTH(1–34); read-out: pKB as concentration (converted)
T4 construct: expressed in transfected cells; host or cells: COS-7 (transient)
T4 sequence (P25961 27-591): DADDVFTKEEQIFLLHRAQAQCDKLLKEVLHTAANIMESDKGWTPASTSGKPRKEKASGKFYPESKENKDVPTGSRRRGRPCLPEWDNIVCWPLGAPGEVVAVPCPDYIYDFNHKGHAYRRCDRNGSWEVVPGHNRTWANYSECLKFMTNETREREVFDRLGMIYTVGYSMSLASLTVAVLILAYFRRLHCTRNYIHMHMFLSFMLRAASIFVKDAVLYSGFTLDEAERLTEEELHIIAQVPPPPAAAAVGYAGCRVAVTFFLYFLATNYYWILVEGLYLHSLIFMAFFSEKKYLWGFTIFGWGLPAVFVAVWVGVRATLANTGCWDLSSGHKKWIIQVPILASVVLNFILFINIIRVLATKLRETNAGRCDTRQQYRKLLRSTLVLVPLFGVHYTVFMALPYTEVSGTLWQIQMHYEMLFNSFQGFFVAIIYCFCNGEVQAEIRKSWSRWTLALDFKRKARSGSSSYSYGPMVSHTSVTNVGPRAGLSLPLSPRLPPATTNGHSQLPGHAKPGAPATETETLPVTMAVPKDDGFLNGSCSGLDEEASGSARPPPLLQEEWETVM

T2 sequence (P49190 25-550): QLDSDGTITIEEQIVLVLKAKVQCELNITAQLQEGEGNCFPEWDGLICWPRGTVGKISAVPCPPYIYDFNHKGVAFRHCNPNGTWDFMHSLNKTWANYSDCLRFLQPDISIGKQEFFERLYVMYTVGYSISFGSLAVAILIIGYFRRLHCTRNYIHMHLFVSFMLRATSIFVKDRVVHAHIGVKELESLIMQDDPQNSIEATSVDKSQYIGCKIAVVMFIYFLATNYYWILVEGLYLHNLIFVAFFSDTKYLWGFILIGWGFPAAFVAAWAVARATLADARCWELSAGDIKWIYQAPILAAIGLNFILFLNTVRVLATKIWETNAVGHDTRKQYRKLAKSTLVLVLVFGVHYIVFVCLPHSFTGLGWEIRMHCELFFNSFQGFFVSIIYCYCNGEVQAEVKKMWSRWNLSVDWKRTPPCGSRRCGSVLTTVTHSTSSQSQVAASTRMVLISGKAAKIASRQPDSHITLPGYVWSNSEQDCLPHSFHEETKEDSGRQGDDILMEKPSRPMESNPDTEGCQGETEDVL

Sequence: DAAFRERARLLAALERRHWLNSYMHKLLVLDAP [TIP(7–39)]
- reduction of peak [Ca2+]i increase ([1]; TIP(7–39) 1 μM against rPTH(1–34) 3 nM): 79±1%
- change in [Ca2+]i ([1]; TIP(7–39) 1 μM, rPTH(1–34) 3 nM): No change in [Ca^2+]i
- lower affinity than full-length TIP39 ([2]; filtration assay, no GTPγS (receptor-G-protein complex)): 70 fold
- lower binding potency than full-length TIP39 ([2]; presence of 10 μM GTPγS): 32 fold
- accumulation of cAMP in the absence of agonist ([3]; 240 nM TIP(7–39)): 2.0±0.05 pmol/well
- accumulation of cAMP in the absence of agonist ([3]; 760 nM TIP(7–39)): 2.2±0.05 pmol/well
- accumulation of cAMP in the absence of agonist ([3]; 2.4 μM TIP(7–39)): 2.5±0.7 pmol/well
- effect of human plasma on antagonist potency ([3]; 20% human plasma): did not reduce the antagonist potency
- Schild slope ([3]; inhibition of rPTH(1–34)-stimulated cAMP): 0.99±0.24
- Kb ([3]; agonist PTHrP(1–34)): 0.11 µM
- Kb ([3]; agonist rPTH(1–34), Schild analysis): 0.15 µM
- activation of the PTH1 receptor [4]: did not detectably stimulate cAMP accumulation
- ligand-stimulated cAMP accumulation [5]: loss of detectable ligand-stimulated cAMP accumulation
- activation of adenylyl cyclase activity [6]: did not detectably activate adenylyl cyclase activity
- level of cAMP accumulation ([6]; 3.2 μM TIP(7–39), without ligand 0.95±0.04): 0.91±0.04 pmol/well
- greater selectivity for the PTH1 receptor than [D-Tryp12, Tyr34]PTH(7–34) or PTHrP(7–34) ([7]; PTH1 over PTH2 receptor, 10 μM GTPγS): 5.5 fold
- higher affinity than TIP39 ([7]; filtration assay, no GTPγS): 5.6 fold
- higher affinity than TIP39 ([7]; presence of 10 μM GTPγS): 12 fold
- affinity for the PTH1 receptor ([7]; summary statement): < 10 nM
- Kb [8]: 0.31 µM
